Measured values: article PMC11166458, “Caskin2 is a novel talin- and Abi1-binding protein that promotes cell motility” (Journal of Cell Science, 2024)
No end group written: not given here.

Key:
MCF7 cells = assay: Caskin2–talin colocalization in MCF7 cells (Pearson's correlation); format: cell-based, Human; conditions: blebbistatin 10 µM, 20 µM for 45 min (Fig. S3B)
Description: PA-JEB/β4 keratinocytes were seeded on glass coverslips and cultured for 24 h in complete KGM, and then continued to be cultured for a further 16 h in DMEM with 10% FCS. GE11^tetONβ1 and MCF7 cells were seeded on glass coverslips and cultured for 24 h in DMEM with 10% FCS. Cells were fixed in 2% paraformaldehyde and permeabilized with 0.2% Triton X-100 for 5 min, blocked with PBS containing 2% bovine serum albumin (BSA; Sigma-Aldrich) for 45 min and subsequently incubated with primary and secondary antibodies for 1 h. In between antibody steps, the coverslips were washed three times with PBS. Actin fibers were visualized by staining with Phalloidin–Alexa Fluor 647 (Cell Signaling Technology). Nuclei were stained with DAPI. Samples were mounted on glass slides in Mowiol after three washing steps with PBS. Images were acquired with a Leica TCS SP5 confocal microscope with a 63× (NA 1.4) oil objective. Software for image acquisition is Leica LAS AF 3.0.2 ([Wang et al., 2020b]).
Imaging analysis was performed using FIJI software ([Schindelin et al., 2012]). The levels of colocalization between Caskin2 and various other proteins, including integrin β4, FA proteins and CMSC components, was performed using Pearson's co-efficient analysis in the JACoP module of ImageJ ([Carisey et al., 2013]; [Wang et al., 2020b]).

[1] = system: talin-R7R8 (residues 1358–1653), R8 domain; assay: X-ray structure of talin-R7R8 in complex with Caskin2-LD peptide, interface analysis; format: binding, murine; conditions: electron density map; 1:2 molar ratio of protein to peptide
Description: A codon-optimized synthetic gene encoding murine talin-R7/R8 domains (residues 1358–1653) was cloned into the pETNKI-6xhis-3C-LIC vector ([Luna-Vargas et al., 2011]). The 6×his–3C–talin-R7/R8 protein was expressed in Bl21(DE3) cells, for 18 h at 20°C upon induction with 0.4 mM IPTG. Cells were harvested by centrifugation (4000 g for 15 min) and stored at −20°C. After thawing, cells were resuspended in lysis buffer [25 mM Tris-HCl pH 8.0, 10 mM imidazole, 200 mM NaCl, 1 mM TCEP and 5 μg/ml DNase (Roche)] and lysed by sonication. The soluble lysate fractions were collected after centrifugation (55,000 g at 4°C for 30 min) and applied to a nickel Sepharose column. Beads were washed with wash buffer (lysis buffer without DNase) and protein was eluted in the same buffer supplemented with 250 mM imidazole. The 6×His tag was cleaved off by his-3C protease during dialysis against 25 mM Tris-HCl pH 8.0, 100 mM NaCl, 1 mM TCEP for 16 h at 4°C. The protein solution was diluted with an equal volume of 25 mM Tris-HCl pH 8.0, 1 mM TCEP before his-3C protease and uncleaved 6×his–talin-R7/R8 were removed by nickel Sepharose. The protein was further purified by anion exchange chromatography (Resource Q column, Cytiva) followed by size exclusion chromatography (S75 Superdex 16/60, Cytiva) in 25 mM Tris-HCl pH 8.0, 100 mM NaCl, 1 mM TCEP. Talin-R7/R8 eluted in a single peak. […]

| Molecule | overall Caskin2–talin colocalization (MCF7 cells) | binding to talin-R8 in crystal structure [1] |
| --- | --- | --- |
| Cc1ccc2c(c1)C(=O)C1(O)CCN(c3ccccc3)C1=N2 (centres unmarked) [blebbistatin] | increased overall Caskin2–talin colocalization | – |
| Caskin2-LD peptide: C-terminal LD motif peptide of Caskin2 (residues 1187–1202) (STMFDALADQLDAMLD; also: Atto488 label) | – | clear binding of the Caskin2-LD peptide to the R8 motif |
